Measured values reported in patent publication US20070026080A1, “Manufacturing process for tigecycline” (Wyeth, priority 2005, published 2007).

Test: Strength and degradation profile of tigecycline 20 mg/mL bulk solutions by reversed phase HPLC (effect of temperature, time, pH, dissolved oxygen; Runs A to O)
Assay type: physicochemical
Settings: 20 mg/mL
Method: The contents of the sample vials are dissolved in diluent. The sample solution is diluted, if necessary, and chromatographed on a reversed phase column using gradient elution. Impurities are determined by comparing the impurity peak areas in the sample preparation chromatogram to the average area of tigecycline peaks in the standard preparation chromatograms obtained concomitantly.
Chromatographic Column—Length about 15 cm, inside diameter about 4.6 mm, packed with Inertsil ODS2, 5 μm size particles or equivalent.
Detector—Ultraviolet spectrophotometric detector capable of operating at 248 nm with a sensitivity of about 0.5 absorbance units full scale.
The results of additional studies to investigate the effect of processing parameters such as temperature, time, and dissolved oxygen content on the purity profile of tigecycline solutions using the following materials, methods and procedures are presented in Tables A to O.
The experiments were run in plastic glove bags under normal laboratory light conditions. Plastic glove boxes will be used to control the headspace of the beakers. The batch size was 200 mL. • 1. Prepare the glove bag with a mixture of nitrogen and air to achieve an oxygen level in the solution as per the design. • 2. Place the jacketed beaker on the magnetic stirrer. Connect it to the cooler. Set the cooler to the desired set point. • 3. Add 200 mL of SWFI in to the beaker. Allow equilibrating. Measure the temperature and oxygen content. When it reaches the desired condition, add accurately weighed API and mix until dissolved. If necessary use spatula to aid dissolution. For pH adjustments, use 4 mL of either 0.1N NaOH or 0.1N HCl and 196 mL of WFI for manufacture. • 4. After complete dissolution, Transfer about 5.5 mL of Solution in vials and stopper them. These vials will be stoppered at the appropriate headspace conditions. Place the vials in appropriate temperature conditions. • 5. Sample the vials at 1, 4, 8, 10, 12 and 24 hours. Send the samples for analysis. Freeze the 10, 12 and 24 samples at −20° C. for analysis the following day. • 6. Measure pH and record color of the solution at each time point. Results
The 1-hour samples were taken directly from the beakers. Samples for later time points were collected in stoppered vials processed in the atmosphere of the bag in order to simulate the headspace conditions then placed in water baths or refrigerator to maintain there respective temperature conditions. This was done to maintain safety in the lab. Disposable plastic glove bags require constant flow of a mixture of nitrogen and air to maintain headspace oxygen level that will result in the desired dissolved oxygen (DO) content in the sample. The pH of samples was measured at each sample points.
Strength and degradation profile was analyzed by HPLC as described above. […] Degradation was slightly higher at higher temperature condition.

[1] = Run #F, 2° C., hours 1,4,8,12,24 at r5-r9, 8 h after preparation
[2] = Run #F, 2° C., hours 1,4,8,12,24 at r5-r9, 12 h after preparation
[3] = Run #F, 2° C., hours 1,4,8,12,24 at r5-r9, 24 h after preparation
[4] = Run #G, 5° C., hours 1,4,8,12,24 at r6-r10, after 4 hours
[5] = Run #G, 5° C., hours 1,4,8,12,24 at r6-r10, after 24 hours
[6] = Run #G, 5° C., hours 1,4,8,12,24 at r16-r20, after 1 hours
[7] = Run #G, 5° C., hours 1,4,8,12,24 at r16-r20, after 4 hours
[8] = Run #G, 5° C., hours 1,4,8,12,24 at r16-r20, after 8 hours
[9] = Run #G, 5° C., hours 1,4,8,12,24 at r16-r20, after 12 hours
[10] = Run #G, 5° C., hours 1,4,8,12,24 at r16-r20, after 24 hours
[11] = Run #H, 5° C., pH 7.9, Oxygen 1.0 mg/L, hours 1,4,8,10,12,24 at r6-r11
[12] = Run #H, 5° C., pH 7.9, Oxygen 1.0 mg/L, hours 1,4,8,10,12,24 at r6-r11, 1 h
[13] = Run #H, 5° C., pH 7.9, Oxygen 1.0 mg/L, hours 1,4,8,10,12,24 at r6-r11, 4 h
[14] = Run #H, 5° C., pH 7.9, Oxygen 1.0 mg/L, hours 1,4,8,10,12,24 at r6-r11, 10 h
[15] = Run #H, 5° C., pH 7.9, Oxygen 1.0 mg/L, hours 1,4,8,10,12,24 at r6-r11, 12 h
[16] = Run #H, 5° C., pH 7.9, Oxygen 1.0 mg/L, hours 1,4,8,10,12,24 at r6-r11, 24 h
[17] = Run #H, 5° C., pH 7.9, Oxygen 1.0 mg/L, hours 1,4,8,10,12,24 at r17-r22, 1 h
[18] = Run #H, 5° C., pH 7.9, Oxygen 1.0 mg/L, hours 1,4,8,10,12,24 at r17-r22, 4 h
[19] = Run #H, 5° C., pH 7.9, Oxygen 1.0 mg/L, hours 1,4,8,10,12,24 at r17-r22, 8 h
[20] = Run #H, 5° C., pH 7.9, Oxygen 1.0 mg/L, hours 1,4,8,10,12,24 at r17-r22, 10 h
[21] = Run #H, 5° C., pH 7.9, Oxygen 1.0 mg/L, hours 1,4,8,10,12,24 at r17-r22, 12 h
[22] = Run #H, 5° C., pH 7.9, Oxygen 1.0 mg/L, hours 1,4,8,10,12,24 at r17-r22, 24 h
[23] = Run #I, 5° C., pH 7.9, Oxygen 1.0 mg/L, hours 1,4,8,10,12,24 at r6-r11, 1 h
[24] = Run #I, 5° C., pH 7.9, Oxygen 1.0 mg/L, hours 1,4,8,10,12,24 at r6-r11, 4 h
[25] = Run #I, 5° C., pH 7.9, Oxygen 1.0 mg/L, hours 1,4,8,10,12,24 at r6-r11, 8 h
[26] = Run #I, 5° C., pH 7.9, Oxygen 1.0 mg/L, hours 1,4,8,10,12,24 at r6-r11, 10 h
[27] = Run #I, 5° C., pH 7.9, Oxygen 1.0 mg/L, hours 1,4,8,10,12,24 at r6-r11, 12 h

Structure (SMILES): CN(C)c1cc(NC(=O)CNC(C)(C)C)c(O)c2c1C[C@H]1C[C@H]3[C@H](N(C)C)C(O)=C(C(N)=O)C(=O)[C@@]3(O)C(O)=C1C2=O [Tigecycline]
- RRT 1.45 [1]: 0.09%
- RRT 1.85 MW = 597 [1]: 0.08%
- Total [1]: 1.00%
- RRT 0.74 Epimer [2]: 0.18%
- RRT 1.45 [2]: 0.08%
- Total [2]: 1.07%
- RRT 0.74 Epimer [3]: 0.19%
- Total [3]: 1.43%
- Strength (Run #G, 5° C., Oxygen = 1.0 mg/mL, hours 1,4,8,12,24 at r6-r10, after 1 hours): 18.577 mg/mL
- Strength (Run #G, 5° C., Oxygen = 1.0 mg/mL, hours 1,4,8,12,24 at r6-r10, after 4 hours): 18.694 mg/mL
- Strength (Run #G, 5° C., Oxygen = 1.0 mg/mL, hours 1,4,8,12,24 at r6-r10, after 8 hours): 18.487 mg/mL
- Strength (Run #G, 5° C., Oxygen = 1.0 mg/mL, hours 1,4,8,12,24 at r6-r10, after 12 hours): 18.507 mg/mL
- Strength (Run #G, 5° C., Oxygen = 1.0 mg/mL, hours 1,4,8,12,24 at r6-r10, after 24 hours): 18.587 mg/mL
- RRT 1.67 MW = 556 (Run #G, 5° C., Oxygen = 1.0 mg/mL, hours 1,4,8,12,24 at r16-r20, after 1 hours): 0.08%
- RRT 1.67 MW = 556 (Run #G, 5° C., Oxygen = 1.0 mg/mL, hours 1,4,8,12,24 at r16-r20, after 4 hours): 0.14%
- RRT 1.67 MW = 556 (Run #G, 5° C., Oxygen = 1.0 mg/mL, hours 1,4,8,12,24 at r16-r20, after 8 hours): 0.17%
- RRT 1.67 MW = 556 (Run #G, 5° C., Oxygen = 1.0 mg/mL, hours 1,4,8,12,24 at r16-r20, after 12 hours): 0.20%
- RRT 1.67 MW = 556 (Run #G, 5° C., Oxygen = 1.0 mg/mL, hours 1,4,8,12,24 at r16-r20, after 24 hours): 0.23%
- RRT 0.74 Epimer (Run #G, 5° C., hours 1,4,8,12,24 at r6-r10, after 1 hours): 0.16%
- RRT 0.58 [4]: 0.07%
- RRT 0.74 Epimer [4]: 0.17%
- RRT 0.74 Epimer (Run #G, 5° C., hours 1,4,8,12,24 at r6-r10, after 8 hours): 0.18%
- RRT 0.74 Epimer (Run #G, 5° C., hours 1,4,8,12,24 at r6-r10, after 12 hours): 0.20%
- RRT 0.58 [5]: 0.08%
- RRT 0.74 Epimer [5]: 0.21%
- RRT 1.45 [6]: 0.08%
- RRT 1.64 Mino [6]: 0.11%
- RRT 1.85 MW = 597 [6]: 0.08%
- Total [6]: 0.58%
- RRT 1.64 Mino [7]: 0.07%
- Total [7]: 0.78%
- RRT 1.45 [8]: 0.07%
- RRT 1.85 MW = 597 [8]: 0.09%
- Total [8]: 1.12%
- RRT 1.45 [9]: 0.09%
- Total [9]: 1.34%
- RRT 1.85 MW = 597 [10]: 0.10%
- Total [10]: 2.09%
- RRT 0.58 [11]: 0.09%
- RRT 0.64 9-Amino [11]: BRL (BRL means below reporting limit (meaning less than 0.05% of tigecycline peak))
- RRT 0.74 Epimer [12]: 0.19%
- Strength [12]: 19.457 mg/mL
- RRT 0.74 Epimer [13]: 0.20%
- Strength [13]: 19.441 mg/mL
- Strength (Run #H, 5° C., pH 7.9, Oxygen 1.0 mg/L, hours 1,4,8,10,12,24 at r6-r11, 8 h): 19.361 mg/mL
- RRT 0.74 Epimer [14]: 0.25%
- Strength [14]: 19.447 mg/mL
- RRT 0.74 Epimer [15]: 0.27%
- Strength [15]: 20.119 mg/mL
- RRT 0.74 Epimer [16]: 0.23%
- Strength [16]: 19.319 mg/mL
- RRT 0.78 MW = 557 (Run #H, 5° C., pH 7.9, Oxygen 1.0 mg/L, hours 1,4,8,10,12,24 at r17-r22): BRL (BRL means below reporting limit (meaning less than 0.05% of tigecycline peak))
- RRT 1.45 [17]: 0.09%
- RRT 1.64 Mino [17]: 0.12%
- RRT 1.85 MW = 597 [17]: 0.07%
- Total [17]: 0.60%
- RRT 1.45 [18]: 0.07%
- RRT 1.64 Mino [18]: 0.09%
- RRT 1.85 MW = 597 [18]: 0.08%
- Total [18]: 0.70%
- RRT 1.64 Mino [19]: 0.10%
- Total [19]: 0.66%
- RRT 1.64 Mino [20]: 0.11%
- Total [20]: 0.90%
- RRT 1.85 MW = 597 [21]: 0.09%
- Total [21]: 0.87%
- RRT 1.45 [22]: 0.05%
- RRT 1.64 Mino [22]: 0.15%
- RRT 1.85 MW = 597 [22]: 0.10%
- Total [22]: 1.03%
- RRT 0.64 9-Amino (Run #I, 5° C., pH 7.9, Oxygen 1.0 mg/L, hours 1,4,8,10,12,24 at r6-r11): BRL (BRL means below reporting limit (meaning less than 0.05% of tigecycline peak))
- RRT 0.58 [23]: 0.08%
- RRT 0.74 Epimer [23]: 0.19%
- Strength [23]: 19.263 mg/mL
- RRT 0.58 [24]: 0.09%
- RRT 0.74 Epimer [24]: 0.21%
- Strength [24]: 19.361 mg/mL
- RRT 0.58 [25]: 0.06%
- RRT 0.74 Epimer [25]: 0.18%
- Strength [25]: 19.131 mg/mL
- RRT 0.74 Epimer [26]: 0.29%
- Strength [26]: 19.204 mg/mL
- RRT 0.58 [27]: 0.07%
- RRT 0.74 Epimer [27]: 0.26%
